Test results reported in publication PMC5345657, “Targeting myeloid differentiation protein 2 by the new chalcone L2H21 protects LPS‐induced acute lung injury” (Journal of Cellular and Molecular Medicine, 2016).

Target: T1, MD-2 (myeloid differentiation protein 2, rhMD-2) (Homo sapiens, UniProt Q9Y6Y9)
T1 construct: gene LY96; recombinant human MD-2 (rhMD-2, R&D Systems)
T1 sequence (Q9Y6Y9 19-160): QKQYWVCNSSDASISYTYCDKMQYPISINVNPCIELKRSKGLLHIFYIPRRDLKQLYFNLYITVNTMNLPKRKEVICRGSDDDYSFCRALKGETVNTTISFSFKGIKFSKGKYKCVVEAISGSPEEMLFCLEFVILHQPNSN
Assay: SPR (ProteOn XPR36); supported by bis-ANS displacement and biotin-LPS competition ELISA; R90A and Y102A abolish binding

For `COc1cccc(/C=C/C(=O)c2ccc(O)c(O)c2)c1OC` [L2H21, (E)‐2,3‐Dimethoxy‐3′,4′‐dihydroxychalcone], the Kd was 19.1 µM.
